{"source": "ChEMBL document CHEMBL5385875", "about": "“Tumor killing by a dietary curcumin mono-carbonyl analog that works as a selective ROS generator via TrxR inhibition” (Eur J Med Chem, 2023)", "key": {"NCI-H460 [1]": {"test_system": "NCI-H460", "assay": "Upregulation of caspase-9 activation in human NCI-H460 cells at 1 to 2 uM measured after 48 hrs by immunoblot analysis", "assay_type": "functional, cell-based", "conditions": "dose 1-2 µM"}, "[2]": {"assay": "Toxicity in BALB/c nude mouse assessed as effect on spleen at 5 to 15 mg/kg, ip measured every two days for 27 days", "assay_type": "organism-based", "conditions": "in vivo, 648 h, dose 5-15 mg/kg, time 27 day"}, "MRC5 [3]": {"test_system": "MRC5", "assay": "Induction of ROS accumulation in human MRC5 cells assessed as reduction in GSH levels by measuring yellow green fluorescence incubated for 9 hrs by fluorescence microscope based analysis", "assay_type": "functional, cell-based"}, "NCI-H460 [4]": {"test_system": "NCI-H460", "assay": "Upregulation of caspase-9 activation in human NCI-H460 cells at 1 to 2 uM measured after 48 hrs in presence of NAC by immunoblot analysis", "assay_type": "functional, cell-based", "conditions": "dose 1-2 µM"}, "NCI-H460 [5]": {"test_system": "NCI-H460", "assay": "Cytotoxicity against human NCI-H460 cells assessed as reduction in cell viability at 0.5 to 2 uM incubated for 48 hrs in presence of alpha tocopherol by MTT assay", "assay_type": "functional, cell-based", "conditions": "dose 0.5-2 µM"}, "HepG2": {"test_system": "HepG2", "assay": "Cytotoxicity against human HepG2 cells assessed as reduction in cell viability incubated for 48 hrs by MTT assay", "assay_type": "functional, cell-based", "conditions": "HepG2, 48 h"}, "NCI-H460 [6]": {"test_system": "NCI-H460", "assay": "Cytotoxicity against human NCI-H460 cells assessed as reduction in cell viability at 0.5 to 1 uM measured after 48 hrs in presence of 3-methuladenine by MTT assay", "assay_type": "functional, cell-based", "conditions": "dose 0.5-1 µM"}, "NCI-H460 [7]": {"test_system": "NCI-H460", "assay": "Induction of intracellular ROS accumulation in human NCI-H460 cells at 0.5 to 2 uM by DCFH-DA dye based fluorescence assay", "assay_type": "functional, cell-based", "conditions": "dose 0.5-2 µM, time 1-12 hrs, TDE = time-dependent effect"}, "NCI-H460 [8]": {"test_system": "NCI-H460", "assay": "Antitumor activity against human NCI-H460 cells xenografted in BALB/c nude mouse assessed as induction of […] at 5 to 15 mg/kg by TUNEL staining based analysis", "assay_type": "functional, organism-based", "conditions": "dose 5-15 mg/kg"}, "NCI-H460 [9]": {"test_system": "NCI-H460", "assay": "Inhibition of TrxR protein expression in human NCI-H460 cells measured after 6 hrs by immunoblot analysis", "assay_type": "functional, cell-based", "conditions": "dose 0.5-2 µM"}, "[10]": {"assay": "Inhibition of TrxR protein expression in human NCI-H460 cells at 2 uM measured after 6 hrs by immunoblot analysis relative to control", "assay_type": "functional"}, "NCI-H460 [11]": {"test_system": "NCI-H460", "assay": "Upregulation of caspase-3 activation in human NCI-H460 cells at 1 to 2 uM measured after 48 hrs in presence of NAC by immunoblot analysis", "assay_type": "functional, cell-based", "conditions": "dose 1-2 µM"}, "NCI-H460 [12]": {"test_system": "NCI-H460", "assay": "Upregulation of Bax expression in human NCI-H460 cells at 1 to 2 uM measured after 48 hrs by immunoblot analysis", "assay_type": "functional, cell-based", "conditions": "dose 1-2 µM"}, "[13]": {"assay": "Toxicity in BALB/c nude mouse assessed as effect on animal diet status at 5 to 15 mg/kg, ip measured every two days for 27 days", "assay_type": "organism-based", "conditions": "in vivo, 648 h, dose 5-15 mg/kg, time 27 day"}, "MRC5 [14]": {"test_system": "MRC5", "assay": "Induction of intracellular ROS accumulation in human MRC5 cells at upto 2 uM incubated for 6 hrs by DCFH-DA dye based fluorescence assay", "assay_type": "functional, cell-based"}, "NCI-H460 [15]": {"test_system": "NCI-H460", "assay": "Upregulation of Bax expression in human NCI-H460 cells at 1 to 2 uM measured after 48 hrs in presence of NAC by immunoblot analysis", "assay_type": "functional, cell-based", "conditions": "dose 1-2 µM"}, "NCI-H460 [16]": {"test_system": "NCI-H460", "assay": "Induction of ferroptosis in human NCI-H460 cells assessed as increase in intracellular […] by measuring increase in red fluorescence intensity at 0.25 to 0.5 uM incubated for 40 hrs by C11-BODIPY staining based microscopy analysis", "assay_type": "functional, cell-based", "conditions": "dose 0.25-0.5 µM"}, "MRC5 [17]": {"test_system": "MRC5", "assay": "Induction of ferroptosis in human MRC5 cells assessed as increase in intracellular […] by measuring increase in red fluorescence intensity at 2 uM incubated for 40 hrs by C11-BODIPY staining based microscopy analysis", "assay_type": "functional, cell-based"}, "NCI-H460 [18]": {"test_system": "NCI-H460", "assay": "Cytotoxicity against human NCI-H460 cells assessed as reduction in cell viability at 0.5 to 2 uM incubated for 48 hrs in presence of dithiothreitol by MTT assay", "assay_type": "functional, cell-based", "conditions": "dose 0.5-2 µM"}, "[19]": {"assay": "Toxicity in BALB/c nude mouse assessed as effect on kidney at 5 to 15 mg/kg, ip measured every two days for 27 days", "assay_type": "organism-based", "conditions": "in vivo, 648 h, dose 5-15 mg/kg, time 27 day"}, "NCI-H460 [20]": {"test_system": "NCI-H460", "assay": "Induction of intracellular ROS accumulation in human NCI-H460 cells at 1 to 2 uM measured after 6 hrs in presence of VE by DCFH-DA dye based fluorescence assay", "assay_type": "functional, cell-based", "conditions": "dose 1-2 µM"}, "[21]": {"assay": "Toxicity in BALB/c nude mouse assessed as animal death at 5 to 15 mg/kg, ip measured every two days for 27 days", "assay_type": "organism-based", "conditions": "in vivo, 648 h, dose 5-15 mg/kg, time 27 day"}, "[22]": {"target": "Thioredoxin reductase (Homo sapiens) (UniProt Q16881+Q9NNW7+Q86VQ6)", "assay": "Inhibition of TrxR in human NCI-H460 cells measured after 6 hrs by fluorescence microscopy based analysis", "assay_type": "cell-based", "conditions": "dose 0.5-2 µM"}, "NCI-H460 [23]": {"test_system": "NCI-H460", "assay": "Induction of ROS accumulation in human NCI-H460 cells assessed as reduction in GSH levels by measuring yellow green fluorescence incubated for 9 hrs in presence of NAC by fluorescence microscope based analysis", "assay_type": "functional, cell-based"}, "NCI-H460 [24]": {"test_system": "NCI-H460", "assay": "Cytotoxicity against human NCI-H460 cells assessed as reduction in cell viability at 0.5 to 1 uM measured after 48 hrs in presence of ferrostatin-1 by MTT assay", "assay_type": "functional, cell-based", "conditions": "dose 0.5-1 µM"}, "NCI-H460 [25]": {"test_system": "NCI-H460", "assay": "Downregulation of Bcl-2 expression in human NCI-H460 cells at 1 to 2 uM measured after 48 hrs by immunoblot analysis", "assay_type": "functional, cell-based", "conditions": "dose 1-2 µM"}, "NCI-H460 [26]": {"test_system": "NCI-H460", "assay": "Induction of intracellular ROS accumulation in human NCI-H460 cells incubated for 1 to 12 hrs by DCFH-DA dye based fluorescence assay", "assay_type": "functional, cell-based", "conditions": "dose 0.5-2 µM, time 1-12 hrs"}, "NCI-H460 [27]": {"test_system": "NCI-H460", "assay": "Induction of apoptosis in human NCI-H460 cells assessed as reduction of mitochondrial membrane potential incubated for 12 to 36 hrs by JC-1 staining based flow cytometry analysis", "assay_type": "functional, cell-based", "conditions": "dose 0.5-2 µM, time 12-36 hrs"}, "[28]": {"assay": "Toxicity in BALB/c nude mouse assessed as effect on animal activity at 5 to 15 mg/kg, ip measured every two days for 27 days", "assay_type": "organism-based", "conditions": "in vivo, 648 h, dose 5-15 mg/kg, time 27 day"}, "A549": {"test_system": "A549", "assay": "Cytotoxicity against human A549 cells assessed as reduction in cell viability incubated for 48 hrs by MTT assay", "assay_type": "functional, cell-based", "conditions": "A549, 48 h"}, "NCI-H460 [29]": {"test_system": "NCI-H460", "assay": "Induction of ferroptosis in human NCI-H460 cells assessed as increase in MDA levels at 2 uM measured after 40 hrs in presence of NAC by MDA assay", "assay_type": "functional, cell-based"}, "[30]": {"assay": "Toxicity in BALB/c nude mouse assessed as effect on liver at 5 to 15 mg/kg, ip measured every two days for 27 days", "assay_type": "organism-based", "conditions": "in vivo, 648 h, dose 5-15 mg/kg, time 27 day"}, "NCI-H460 [31]": {"test_system": "NCI-H460", "assay": "Induction of ferroptosis in human NCI-H460 cells assessed as fold increase in MDA levels at 2 uM measured after 40 hrs by MDA assay", "assay_type": "functional"}, "[32]": {"assay": "Toxicity in BALB/c nude mouse assessed as effect on heart at 5 to 15 mg/kg, ip measured every two days for 27 days", "assay_type": "organism-based", "conditions": "in vivo, 648 h, dose 5-15 mg/kg, time 27 day"}, "NCI-H460 [33]": {"test_system": "NCI-H460", "assay": "Cytotoxicity against human NCI-H460 cells assessed as reduction in cell viability at 0.5 to 1 uM measured after 48 hrs in presence of erastin by MTT assay", "assay_type": "functional, cell-based", "conditions": "dose 0.5-1 µM"}, "NCI-H460 [34]": {"test_system": "NCI-H460", "assay": "Cytotoxicity against human NCI-H460 cells assessed as reduction in cell viability at 0.5 to 1 uM measured after 48 hrs in presence of Z-VAD-fmk by MTT assay", "assay_type": "functional, cell-based", "conditions": "dose 0.5-1 µM"}, "NCI-H460 [35]": {"test_system": "NCI-H460", "assay": "Induction of apoptosis in human NCI-H460 cells assessed as reduction of mitochondrial membrane potential at 0.5 to 2 uM by JC-1 staining based flow cytometry analysis", "assay_type": "functional, cell-based", "conditions": "dose 0.5-2 µM, time 12-36 hrs, TDE = time-dependent effect"}}, "note": "pIC50: −log10 of the molar value. The source made the active and inactive calls. The rule behind the calls is not given here.", "data": [{"compound": "O=C1/C(=C/c2cccc(C(F)(F)F)c2)CNC/C1=C\\c1cccc(C(F)(F)F)c1", "values": [{"measurement": "Activity", "setting": "NCI-H460 [1]", "value": "Active"}, {"measurement": "Activity", "setting": "[2]", "value": "Non-Toxic"}, {"measurement": "Activity", "setting": "MRC5 [3]", "value": "inactive"}, {"measurement": "Activity", "setting": "NCI-H460 [4]", "value": "inactive"}, {"measurement": "Activity", "setting": "NCI-H460 [5]", "value": "inactive"}, {"measurement": "pIC50", "setting": "HepG2", "value": 6.17}, {"measurement": "Activity", "setting": "NCI-H460 [6]", "value": "inactive"}, {"measurement": "Activity", "setting": "NCI-H460 [7]", "value": "Tde"}, {"measurement": "Activity", "setting": "NCI-H460 [8]", "value": "Active"}, {"measurement": "inhibition", "setting": "NCI-H460 [9]", "value": "Dose-Dependent Effect"}, {"measurement": "inhibition at 2 µM", "setting": "[10]", "value": 69, "unit": "%"}, {"measurement": "Activity", "setting": "NCI-H460 [11]", "value": "inactive"}, {"measurement": "Activity", "setting": "NCI-H460 [12]", "value": "Active"}, {"measurement": "Activity", "setting": "[13]", "value": "Non-Toxic"}, {"measurement": "Activity", "setting": "MRC5 [14]", "value": "inactive"}, {"measurement": "Activity", "setting": "NCI-H460 [15]", "value": "inactive"}, {"measurement": "Activity", "setting": "NCI-H460 [16]", "value": "Active"}, {"measurement": "Activity", "setting": "MRC5 [17]", "value": "inactive"}, {"measurement": "Activity", "setting": "NCI-H460 [18]", "value": "inactive"}, {"measurement": "Activity", "setting": "[19]", "value": "Non-Toxic"}, {"measurement": "Activity", "setting": "NCI-H460 [20]", "value": "inactive"}, {"measurement": "Activity", "setting": "[21]", "value": "Non-Toxic"}, {"measurement": "inhibition", "setting": "[22]", "value": "Dose-Dependent Effect"}, {"measurement": "Activity", "setting": "NCI-H460 [23]", "value": "inactive"}, {"measurement": "Activity", "setting": "NCI-H460 [24]", "value": "Active"}, {"measurement": "Activity", "setting": "NCI-H460 [25]", "value": "Active"}, {"measurement": "Activity", "setting": "NCI-H460 [26]", "value": "Dose-Dependent Effect"}, {"measurement": "Activity", "setting": "NCI-H460 [27]", "value": "Dose-Dependent Effect"}, {"measurement": "Activity", "setting": "[28]", "value": "Non-Toxic"}, {"measurement": "pIC50", "setting": "A549", "value": 5.24}, {"measurement": "Activity", "setting": "NCI-H460 [29]", "value": "inactive"}, {"measurement": "Activity", "setting": "[30]", "value": "Non-Toxic"}, {"measurement": "fold change (FC)", "setting": "NCI-H460 [31]", "value": 3.5}, {"measurement": "Activity", "setting": "[32]", "value": "Non-Toxic"}, {"measurement": "Activity", "setting": "NCI-H460 [33]", "value": "Active"}, {"measurement": "Activity", "setting": "NCI-H460 [34]", "value": "Active"}, {"measurement": "Activity", "setting": "NCI-H460 [35]", "value": "Tde"}]}]}
